These results are taken from US20120093809A1, “USE OF ALKANOYL L-CARNITINE IN COMBINATION WITH CHEMOTHERAPEUTIC AGENTS FOR THE TREATMENT OF NEOPLASMS” (priority 2008, published 2012).

Series [1] relates to NCI-H460 non-small cell lung carcinoma. Put plainly: Antitumor effect of carboplatin with and without acetyl L-carnitine, s.c. xenograft. The procedure:
Treatments started three days after cancer injection. Mice were subdivided (8 mice/group) in the following experimental groups: vehicle receiving only sterile water, carboplatin 40 mg/kg, i.p. q4d/wx3w; acetyl L-carnitine (200 mg/kg po, qdx5/wx3w)+carboplatin.
Body weight recording was carried out through the study.

For series [2], the system named is A2780/Dx multidrug-resistant ovarian carcinoma.
Description: A2780/Dx cancer cells were injected subcutaneously (s.c.) in the right flank of CD1 nude mice (5×10^6/100 μL/mouse). Treatments started eleven days after cancer injection.
Mice were subdivided (10 mice/group) in the following experimental groups: doxorubicin was given intravenously according to the schedule q7dx3 and acetyl-L-carnitine according to the schedule qdx5/wx3w.
Acetyl L-carnitine was administered immediately before the agent given in combination.
To evaluate the anticancer activity, tumor diameters were measured with a Vernier caliper. The formula TV (mm^3)=[length (mm)×width (mm)^2]/2 was used, where the width and the length are the shortest and the longest diameters of each cancer, respectively. Efficacy of the molecule was evaluated as tumor volume inhibition (TVI %) according to the equation: % TVI=100-[(mean cancer weight of treated mice/mean cancer weight of control group)×100]. and Log10 cell kill (LCK) calculated by the formula LCK=(T−C)/3.32×DT, where T and C were the mean times (days) required for treated (T) and control (C) tumors, respectively, to reach 1 cm^3, and DT was the doubling time of control tumors. When tumors reached a volume of about 2 cm^3, mice were sacrificed by cervical dislocation.
Series [3] has as its system NCI-H460 non-small cell lung carcinoma. Put plainly: Antitumor activity of cisplatin in combination with L-carnitine, s.c. xenograft. Particulars: L-carnitine 200 mg/kg po given chronically. Type of series: in vivo. The procedure: Treatments started three days after tumor injection.
To evaluate the antitumor activity, tumor diameters were measured with a Vernier caliper.
When tumors reached a volume of 1-2 cm^3, mice were sacrificed by cervical dislocation. Body weight recording was carried out through the study and mortality was noted.

In a further series the test system is tumour growth. Particulars: WO/2000/06134, cited from earlier work.
The subject of series [4] is lung metastases. The following applies: ALC 100 mg/kg/day p.o.; cited from earlier work.
For series [5], the system named is lung metastases. Particulars: WO/2000/06134; ALC orally 100 mg/kg; cited from earlier work.
The test system of series [6] is LnCaP prostate carcinoma cells (p53 wild-type). Put plainly: Antiproliferative activity of cisplatin with and without acetyl L-carnitine, MTT assay. The following applies: acetyl L-carnitine 10 mM; ≧72 h of exposure; 0.1% FBS. Type of series: cell-based. As for the experimental part: (§1) Moreover, the activity was also evaluated on two prostate tumor cell lines with p53 wild-type (LnCaP) or p53 null (PC3). […] The number of surviving cells was finally determined by the tetrazolium salt (MTT) assay, as described by Hansen M B et al. (Re-examination and further development of a precise and rapid dye method for measuring cell growth/cell kill. J. Immunol. Methods 119: 203-10, 1989). […] In this case the statistical comparison was performed by Mann-Whitney test.
(§2) To test the effects of the compounds on cell growth, tumor cells were seeded in 96-well tissue culture plates at approximately 10% confluence and were allowed to attach and recover for at least 24 h. Tumor cells were exposed to compounds for 72 h or 6 days in 0.1% FBS at 37° C., then medium culture was removed and 100 μL/well of medium were added containing 25 μL/well of a solution 5 mg/mL MTT (final 1 mg/mL). Plates were kept at. 37° C. in incubator with 5% CO2 for 2 h for the formation of blu chrystals. The supernatant was removed and 100 μL/well of lysant medium were added. Plates were kept under stirring for 60 min. The survival cell was determined as optical density by a Multiskan spectrofluorimeter at 570 nm.

In series [7] the test system is NCI-H1650 non-small cell lung carcinoma cells. Described as above. In kind it is cell-based. The procedure: as §1, §2
The subject of series [8] is SJSA-1 (with amplification of mdm2) osteosarcoma cells. Described as above. In kind it is cell-based. As for the experimental part:
as §1, §2

In series [9] the test system is A2780/Dx multidrug-resistant ovarian carcinoma cells. Described as above. Type of series: cell-based. As for the experimental part: as §1
(§3) To test the effects of the compounds on cell growth, tumor cells were seeded in 96-well tissue culture plates at approximately 10% confluence and were allowed to attach and recover for at least 24 h. […] Plates were kept at. 37° C. in incubator with 5% CO2 for 2 h for the formation of blu chrystals. The supernatant was removed and 100 μL/well of lysant medium were added. Plates were kept under stirring for 60 min. The survival cell was determined as optical density by a Multiskan spectrofluorimeter at 570 nm.

Series [10] relates to NCI-H460 non-small cell lung carcinoma cells. The series is described as above. In kind it is cell-based. As for the experimental part: as §1, §3
The mark [11] stands for this setting: day +31, carboplatin 40 mg/kg ip q4d/wx3w, alone or with acetyl L-carnitine 200 mg/kg po qdx5/wx3w.
Setting [12] is: day +24, doxorubicin 6 mg/kg iv, alone or with acetyl L-carnitine 200 mg/kg po.
[13] abbreviates: acetyl L-carnitine 1 mM, same schedule and serum conditions.
The mark [14] stands for this setting: acetyl L-carnitine 10 mM, 72 h, medium with 10% FBS.
[15] abbreviates: acetyl L-carnitine 10 mM, ≧72 h of exposure, 0.1% FBS.

Consider `N.N.O=C([O-])C1(C(=O)[O-])CCC1.[Pt+2]` [CARBOPLATIN, Carboplatin], for which the “LCK (1 cm^3)” value in [1] (Log10 cell kill, DT = 3.6 days, carboplatin 40 mg/kg ip, alone or with acetyl L-carnitine 200 mg/kg po) is given as 0.66. In addition, in series [1] (carboplatin 40 mg/kg ip q4d/wx3w, alone or with acetyl L-carnitine 200 mg/kg po qdx5/wx3w), the BWL % is listed as 1%. Also, in series [1] (setting [11]), the “TV ± SE +31” value is reported as “*704 ± 254 mm^3” and the “TVI % +31” value is reported as 48%. The “TVI % +31” value in [1] (day +31, carboplatin 40 mg/kg ip q4d/wx3w, alone or with acetyl L-carnitine 200 mg/kg po qdx5/wx3w, listed as carboplatin) was “about 48%”. Further, the LETHAL in [1] (dead/total mice, carboplatin 40 mg/kg ip q4d/wx3w, alone or with acetyl L-carnitine 200 mg/kg po qdx5/wx3w) is listed as 0/8.

Consider `COc1cccc2c1C(=O)c1c(O)c3c(c(O)c1C2=O)C[C@@](O)(C(=O)CO)C[C@@H]3O[C@H]1C[C@H](N)[C@H](O)[C@H](C)O1` [Doxorubicin, doxorubicin], for which the “LCK (1 cm^3)” value in series [2] (DT = 2.9 days, doxorubicin 6 mg/kg iv, alone or with acetyl L-carnitine 200 mg/kg po) was found to be 0.7. In [2] (setting [12]), the “TV ± SE +24” value is listed as 1059 ± 195 mm^3 and the “TVI % ± SE +24” value is “**60 ± 11%”. The Leth. in series [2] (dead/total mice, doxorubicin 6 mg/kg iv, alone or with acetyl L-carnitine 200 mg/kg po) was 0/10. The molecule further registered a BWL % max in series [2] (doxorubicin 6 mg/kg iv q7dx3, alone or with acetyl L-carnitine 200 mg/kg po qdx5/wx3w) of 0%.

With `C[N+](C)(C)C[C@H](O)CC(=O)[O-]` [L-carnitine], the “potentiation of the cytotoxic activity of cisplatin” value (“potentiation” below) in series [3] was “not able to potentiate the cytotoxic activity of cisplatin”.

Consider `CC(=O)O[C@H]1C(=O)[C@@]2(C)[C@H]([C@H](OC(=O)c3ccccc3)[C@]3(O)C[C@H](OC(=O)[C@H](O)[C@@H](NC(=O)c4ccccc4)c4ccccc4)C(C)=C1C3(C)C)[C@]1(OC(C)=O)CO[C@@H]1C[C@@H]2O` [Paclitaxel], for which the TVI in the series with tumour growth (ALC orally 100 mg/kg where combined) is 88%.

Take `CC(=O)O[C@H](CC(=O)[O-])C[N+](C)(C)C` [acetyl L-carnitine]: the “protection from toxicity of the antitumor drug” value with lung metastases [4] is “protects the mice from the lethal toxicity and from the neurotoxicity”. Further, the “effect on the formation of lung metastases” value in the series on lung metastases [5] was “significant inhibitory effect on the formation of lung metastases”. Further, the “potentiation” value in series [6] was “able to potentiate the cytotoxic activity of cisplatin”; in series [7] (setting [13]), “ineffective”; in [7] (setting [14]), “failed to increase cisplatin anti-proliferative activity”; in series [7] (setting [15]) it was “able to potentiate the cytotoxic activity of cisplatin”; in [8] (setting [13]) it was “ineffective”; in series [8] (setting [14]) it was “failed to increase cisplatin anti-proliferative activity”. For the same molecule, the “potentiation” value in [8] (acetyl L-carnitine 10 mM, 72 h of exposure, 0.1% FBS) is “able to potentiate the cytotoxic activity of cisplatin”; in [9] (setting [13]) it was “ineffective”; in series [9] (setting [14]), “failed to increase cisplatin anti-proliferative activity”; in series [9] (setting [15]), “able to potentiate the cytotoxic activity of cisplatin”; in series [10] (setting [13]), “ineffective”; in series [10] (setting [14]), “failed to increase cisplatin anti-proliferative activity”. For the same molecule, the “potentiation” value in series [10] (setting [15]) is recorded as “able to potentiate the cytotoxic activity of cisplatin”. In the series on tumour growth (ALC orally 100 mg/kg), the “effect on tumour growth” value is recorded as “no effect on tumour growth”.
